From BindingDB's records for doi:10.7270/Q2930RSV (Burnham Center For Chemical Genomics, 2012)

biological target: T1, Caspase-3 (Homo sapiens, UniProt P42574)
T1 sequence (P42574 whole entry): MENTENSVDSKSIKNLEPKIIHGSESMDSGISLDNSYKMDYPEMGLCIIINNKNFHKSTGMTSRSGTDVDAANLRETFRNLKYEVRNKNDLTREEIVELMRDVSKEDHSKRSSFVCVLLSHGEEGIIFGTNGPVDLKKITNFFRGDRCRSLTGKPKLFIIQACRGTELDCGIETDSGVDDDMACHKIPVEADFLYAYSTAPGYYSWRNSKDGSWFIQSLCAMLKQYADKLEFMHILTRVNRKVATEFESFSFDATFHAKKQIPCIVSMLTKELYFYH

**Q.** Which IC50 does the source give for N#CC1(CCCN2CCCCC2)c2ccccc2CCc2ccccc21 [MLS001178552] here?
**A.** > 100 µM

**Q.** With CCN(CC)c1ccc(NC2CC(=O)N(CCc3ccc(OC)cc3)C2=O)cc1 (stereo not drawn) [3-[4-(diethylamino)anilino]-1-[2-(4-methoxyphenyl)ethyl]pyrrolidine-2,5-dione] as the compound, how does the IC50 read?
**A.** > 100 µM

**Q.** How did the IC50 turn out when CC(NC(=O)COC(=O)c1ccc([N+](=O)[O-])s1)c1ccccc1 (stereo not drawn) [[2-oxo-2-(1-phenylethylamino)ethyl] 5-nitrothiophene-2-carboxylate] was run?
**A.** > 100 µM

**Q.** For CN(C)c1ccc(NC(=O)c2ccc(Cn3cc([N+](=O)[O-])cn3)cc2)cc1 [MLS000727576], which IC50 is on record?
**A.** > 100 µM

**Q.** For O=[N+]([O-])c1ccc(-n2[n-]c(=[N+]3CCOCC3)cc2O)cc1 [5-(4-morpholinyl)-2-(4-nitrophenyl)-4H-pyrazol-3-one], which IC50 is on record?
**A.** > 100 µM

**Q.** For COc1ccc(NC(=O)NNc2cc(N3CCOCC3)nc(N3CCOCC3)n2)cc1 [MLS000765810], which IC50 is on record?
**A.** > 100 µM

**Q.** For CCCCOc1cc(NCc2ccccc2)c2ncn(C(C)C)c2c1, which IC50 is on record?
**A.** > 100 µM

**Q.** CCC(=O)c1ccc(OCc2cn(CC(=O)c3ccc(O)cc3)nn2)cc1 [1-[4-[[1-[2-(4-hydroxyphenyl)-2-oxoethyl]triazol-4-yl]methoxy]phenyl]propan-1-one] was tested. Which IC50 did it give?
**A.** > 100 µM

**Q.** How did the IC50 turn out when COc1ccc(-c2csc(CCn3[nH]c(C)cc3=O)n2)cc1 [SMR000347900] was run?
**A.** > 100 µM

**Q.** How did the IC50 turn out when O=C(COC(=O)c1ccc([N+](=O)[O-])s1)NCCc1ccccc1 [MLS002159124] was run?
**A.** > 100 µM

**Q.** Which IC50 does the source give for NS(=O)(=O)c1ccc(CCNC(=O)COC(=O)c2ccc([N+](=O)[O-])o2)cc1 here?
**A.** > 100 µM

**Q.** For O=C(CCc1ccccc1)NNc1cc(N2CCCCC2)nc(N2CCCCC2)n1 [N'-[2,6-di(piperidin-1-yl)pyrimidin-4-yl]-3-phenylpropanehydrazide], which IC50 is on record?
**A.** > 100 µM

**Q.** CN(C)c1cc(N=NCc2ccccc2)nc(N(C)C)n1 [N2,N2,N4,N4-tetramethyl-N6-[(phenylmethylidene)amino]pyrimidine-2,4,6-triamine] was tested. Which IC50 did it give?
**A.** 50.7 µM

**Q.** COC(=O)c1ccc(C)cc1C1CN=NC12Cc1cc(C)ccc1C2=O (stereo not drawn) [4-methyl-2-(6-methyl-3-oxo-4'-spiro[1H-indene-2,5'-3,4-dihydropyrazole]yl)benzoic acid methyl ester] was tested. Which IC50 did it give?
**A.** > 100 µM

**Q.** How did the IC50 turn out when CC(C)(C)c1ccc(C(=O)NNc2cc(N3CCCCC3)nc(N3CCCCC3)n2)cc1 was run?
**A.** > 100 µM

**Q.** With CC1(C)Cc2c(nn(-c3ccccc3)c(=N)c2C#N)CO1 as the compound, how does the IC50 read?
**A.** 1.09 µM

**Q.** Which IC50 does the source give for O=C(NNc1cc(N2CCCC2)nc(N2CCCC2)n1)c1ccc([N+](=O)[O-])cc1 [N'-(2,6-dipyrrolidin-1-ylpyrimidin-4-yl)-4-nitrobenzohydrazide] here?
**A.** > 100 µM

**Q.** Which IC50 does the source give for Cc1[nH]n(-c2ccccc2)c(=O)c1S(=O)(=O)c1ccccc1 [5-methyl-2-phenyl-4-(phenylsulfonyl)-1H-pyrazol-3-one] here?
**A.** > 100 µM
